Where two headings read alike, the source gives them in different places. Some results are limits rather than exact numbers.

The target of experiment [1] is SHP-2 enzyme (Met1-Leu525) (Homo sapiens (Human), UniProt Q06124). Nature of the experiment: SHP2 inhibition enzymatic assay. The format is biochemical. To be noted: read-out: SHP2wt-IC50. The protocol:
The assay was performed as described in YP Chen et al, Nature (535)2016. Assay volume of 20 μL/well was assembled in 384 well black polystyrene low-binding microplates (Greiner), using the following buffer: 60 mM HEPES pH 7.2, 75 mM NaCl, 75 mM KCl, 1 mM EDTA pH 8, 0.05% tween-20, 5 mM DTT. The SHP-2 enzyme (synthetized by Origene, Met1-Leu525, cat #TP750155) was used at a final concentration of 0.5 nM. The enzyme was activated by 500 nM IRS1 peptide (sequence: H2N-LN(pY)IDLDLV(dPEG8)LST(pY)ASINFQK-amide SEQ ID No. 1) and incubated with 75 μM DiFMUP (Sigma) as substrate.
Briefly, DMSO serially diluted testing compounds were transferred to the bottom of the assay plate. SHP2 was then added together with the IRS1 peptide. 30 min post incubation, the DiFMUP substrate was added to the reaction and incubated 30 min at room temperature. Finally 5 μL of 160 μM bpV (Potassium bisperoxo[1,10-phenanthroline]oxovanadate [V], Sigma) were added to stop and quench the reaction. The fluorescence was detected by a microplate reader (Envision, PerkinElmer) according to the DiFMUP excitation and emission wavelength. The lower the fluorescence the higher the SHP2 inhibition. […] The percentage inhibition is fitted against the compound dilutions with a four-parameter logistic regression. The inflection point (i.e. the concentration at which half-maximal inhibition is achieved) is the IC50.

For experiment [2], the system named is ERK phosphorylation in KYSE-520 cells. Nature of the experiment: Phospho-ERK cellular assay. The format is cell-based. The following applies: Homo sapiens, KYSE-520 cells, 2 h at 37° C., phospho-ERK1/2 (Thr202/Tyr204) TR-FRET, read-out: PERK IC50. On the procedure:
ERK phosphorylation was detected using the “Advanced phospho-ERK1/2 (Thr202/Tyr204)” TR-FRET kit (Cisbio, Cat #64AERPEG/H), following the manufacturer reagents and instructions.
Briefly, 20.000/well KYSE-520 cells (DSMZ ACC 371) were plated in 6 μL RPMI-1640 (Invitrogen) growth medium, into 384 white low-volume high base TC microplates (Greiner). After an overnight incubation, cells were treated with DMSO serial diluted compounds and incubated for 2 h at 37° C. After incubation, 2 μL/well of 4×Lysis Buffer (Cisbio 64KL1FDF), were added and incubated with cells for 30 min on gentle shaking. Finally, lysates were added with 2 μL/well of Eu cryptate (donor) and D2 (acceptor) conjugated antibodies (as provided by the Cisbio kit #64AERPEG/H) diluted 1:100 in Detection Buffer (as provided by the Cisbio kit #64AERPEG/H). Plates were then sealed and incubated at room temperature in the dark. After an overnight incubation, the TR-FRET signal was detected on a suitable reader (Envision, PerkinElmer). The lower the TR-FRET signal the higher the higher the SHP2 inhibition in cells.
The activity of each compound dilution was calculated as percentage between vehicle DMSO treated cells and no cells, 0% inhibition and 100% inhibition respectively. The percentage activity is fitted against the compound dilutions with a four-parameter logistic regression. The inflection point (i.e. the concentration at which half-maximal inhibition is achieved) is the IC50.
On the technique in general: TR-FRET usually uses a lanthanide donor and a delayed reading to cut background.

[3] abbreviates: 0.5 nM SHP-2 activated by 500 nM IRS1 peptide, 75 μM DiFMUP substrate.

Sequence of SHP-2 enzyme (Met1-Leu525) (Q06124 1-525): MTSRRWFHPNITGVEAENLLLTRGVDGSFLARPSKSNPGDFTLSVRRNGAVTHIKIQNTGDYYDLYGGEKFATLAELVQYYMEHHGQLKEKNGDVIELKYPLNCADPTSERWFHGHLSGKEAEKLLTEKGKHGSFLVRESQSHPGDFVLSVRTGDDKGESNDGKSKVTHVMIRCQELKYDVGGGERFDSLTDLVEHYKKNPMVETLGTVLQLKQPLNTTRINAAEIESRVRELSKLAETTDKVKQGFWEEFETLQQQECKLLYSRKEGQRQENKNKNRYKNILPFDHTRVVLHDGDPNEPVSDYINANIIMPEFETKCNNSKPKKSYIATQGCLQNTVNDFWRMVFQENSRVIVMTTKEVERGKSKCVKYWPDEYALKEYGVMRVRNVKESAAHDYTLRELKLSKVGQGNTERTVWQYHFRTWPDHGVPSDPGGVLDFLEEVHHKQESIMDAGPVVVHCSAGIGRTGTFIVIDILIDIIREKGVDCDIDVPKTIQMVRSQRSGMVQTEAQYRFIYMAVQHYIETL

For orientation: IC50 means the concentration needed to halve the response being measured. With `Cc1ccc2c(-c3n[nH]c4nc(N5CCC6C(C5)C6(CN)c5cc(C)on5)cnc34)cccc2n1` (stereo not drawn) [Example 25, (7-(5-methylisoxazol-3-yl)-3-(3-(2-methylquinolin-5-yl)-1H-pyrazolo[3,4-b]pyrazin-6-yl)-3-azabicyclo[4.1.0]heptan-7-yl)methanamine], the IC50 in experiment [1] (setting [3]) was less than 500 nM; in experiment [2] (KYSE-520, 2 h) it was less than 1000 nM.
The corresponding values for `Cn1c(=O)[nH]c2ccc(-c3n[nH]c4nc(N5CC[C@@H]6[C@H](C5)[C@@]6(CN)c5ccccc5F)cnc34)cc21` [Example 320, 6-(6-((1S,6R,7R)-7-(aminomethyl)-7-(2-fluorophenyl)-3-azabicyclo[4.1.0]heptan-3-yl)-1H-pyrazolo[3,4-b]pyrazin-3-yl)-1-methyl-1,3-dihydro-2H-benzo[d]imidazol-2-one] are less than 500 nM and less than 1000 nM.
For the molecule `Cn1cc2c(Cl)c(-c3n[nH]c4nc(N5CC[C@@H]6[C@H](C5)[C@@]6(CN)c5ccccc5F)cnc34)ccc2n1` [Example 203, ((1S,6R,7R)-3-(3-(4-chloro-2-methyl-2H-indazol-5-yl)-1H-pyrazolo[3,4-b]pyrazin-6-yl)-7-(2-fluorophenyl)-3-azabicyclo[4.1.0]heptan-7-yl)methanamine], the 50% inhibitory concentration (IC50) is less than 500 nM in experiment [1] (setting [3]) and less than 1000 nM in experiment [2] (KYSE-520, 2 h).
On the same counts, the results for `NCC1(c2cccc(F)c2)C2CCN(c3cnc4c(-c5cccc(Cl)c5Cl)n[nH]c4n3)CC21` (stereo not drawn) [Example 7, (3-(3-(2,3-dichlorophenyl)-1H-pyrazolo[3,4-b]pyrazin-6-yl)-7-(3-fluorophenyl)-3-azabicyclo[4.1.0]heptan-7-yl)methanamine] are less than 500 nM and less than 1000 nM.
With `Cc1csc(C2(CN)C3CCN(c4nc5nc(Sc6ccnc(N)c6Cl)cnc5[nH]4)CC32)n1` (stereo not drawn) [Example 70, 4-((2-(7-(aminomethyl)-7-(4-methylthiazol-2-yl)-3-azabicyclo[4.1.0]heptan-3-yl)-1H-imidazo[4,5-b]pyrazin-5-yl)thio)-3-chloropyridin-2-amine], the IC50 in experiment [1] is less than 500 nM; in experiment [2], less than 1000 nM.
Turning to `N#Cc1ccc(-c2n[nH]c3nc(N4CC[C@@H]5[C@H](C4)[C@@]5(CN)c4ccccc4F)cnc23)c(Cl)c1` [Example 245, 4-(6-((1S,6R,7R)-7-(aminomethyl)-7-(2-fluorophenyl)-3-azabicyclo[4.1.0]heptan-3-yl)-1H-pyrazolo[3,4-b]pyrazin-3-yl)-3-chlorobenzonitrile], the 50% inhibitory concentration (IC50) in experiment [1] (setting [3]) was less than 500 nM; in experiment [2] (KYSE-520, 2 h), less than 1000 nM.
The corresponding values for `Cn1cc2c(Cl)c(-c3n[nH]c4nc(N5CC[C@@H]6[C@H](C5)[C@@]6(CN)c5ccc(F)cn5)cnc34)ccc2n1` [Example 120, ((1S,6R,7S)-3-(3-(4-chloro-2-methyl-2H-indazol-5-yl)-1H-pyrazolo[3,4-b]pyrazin-6-yl)-7-(5-fluoropyridin-2-yl)-3-azabicyclo[4.1.0]heptan-7-yl)methanamine] are less than 500 nM and less than 1000 nM.
For the molecule `Cc1nc2c(Cl)c(-c3n[nH]c4nc(N5CC[C@@H]6[C@H](C5)[C@@]6(CN)c5ccccc5F)cnc34)ccc2n1C` [Example 349, ((1S,6R,7R)-3-(3-(4-chloro-1,2-dimethyl-1H-benzo[d]imidazol-5-yl)-1H-pyrazolo[3,4-b]pyrazin-6-yl)-7-(2-fluorophenyl)-3-azabicyclo[4.1.0]heptan-7-yl)methanamine], the IC50 in experiment [1] (setting [3]) is less than 500 nM; in experiment [2] (KYSE-520, 2 h), less than 1000 nM.
As to `Cc1cc([C@@]2(CN)[C@@H]3CCN(c4cnc5c(-c6ccc7nn(C)cc7c6C)n[nH]c5n4)C[C@@H]32)no1` [Example 127, ((1S,6R,7S)-3-(3-(2,4-dimethyl-2H-indazol-5-yl)-1H-pyrazolo[3,4-b]pyrazin-6-yl)-7-(5-methylisoxazol-3-yl)-3-azabicyclo[4.1.0]heptan-7-yl)methanamine], the IC50 in experiment [1] (setting [3]) is less than 500 nM; in experiment [2] (KYSE-520, 2 h), less than 1000 nM.

(Values after patent publication US20240109900A1, “AZABICYCLIC SHP2 INHIBITORS” (IRBM S.P.A., priority 2021, published 2024).)
